Assay results published in US10683286B2, “Furazan-3-carboxylic acid derivatives and use thereof in treatment of cancer” (FREIE UNIVERSITAET BERLIN, priority 2016, dated 2020).

Assays:
STAT5b-SH2 domain = molecular target: T1, STAT5b-SH2 domain (Homo sapiens, UniProt P51692); assay: Competitive fluorescence polarization (FP) assay, STAT5b-SH2 domain
T1 sequence (P51692 136-703): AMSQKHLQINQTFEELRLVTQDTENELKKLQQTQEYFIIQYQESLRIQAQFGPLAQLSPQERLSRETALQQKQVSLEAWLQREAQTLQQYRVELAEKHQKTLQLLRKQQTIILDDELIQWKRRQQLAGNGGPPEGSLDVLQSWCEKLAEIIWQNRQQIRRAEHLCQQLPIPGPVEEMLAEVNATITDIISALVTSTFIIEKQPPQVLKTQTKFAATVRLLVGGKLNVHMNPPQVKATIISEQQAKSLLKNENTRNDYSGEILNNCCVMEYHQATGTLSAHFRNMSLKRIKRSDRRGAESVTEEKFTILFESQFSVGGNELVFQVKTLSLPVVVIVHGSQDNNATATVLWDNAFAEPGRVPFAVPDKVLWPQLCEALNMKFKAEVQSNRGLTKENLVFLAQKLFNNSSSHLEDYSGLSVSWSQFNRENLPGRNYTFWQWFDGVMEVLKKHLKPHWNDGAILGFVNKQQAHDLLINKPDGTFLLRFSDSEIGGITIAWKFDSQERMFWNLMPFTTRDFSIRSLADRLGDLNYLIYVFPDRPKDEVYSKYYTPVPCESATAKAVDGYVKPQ
Description: The ChemBioNet fragment collection composed in accordance with the substructure composition of the World Drug Index (WDI) was screened both for enhancing and inhibiting fragments of the phosphopeptide-STAT5 interaction.
The clone for Stat5b expression was kindly provided by Thorsten Berg (MPI, Martinsried). Expression of that truncated version of Stat5b (aa 136-703) cloned into a modified pQE70, with N-terminal MBP-tag and C-terminal His-tag was conducted on autoinduction medium (overnight express/Novagen). Cells were grown to an optical density (O.D.) of 0.3 at 37° C., then the temperature was reduced to 20° C. for further 48 h of expression. […] The protein was purified by Ni-chelating chromatography followed by gel filtration (Superdex 200/10 mM HEPES pH 7.8, 100 mM NaCl, 1 mM EDTA, 1 mM DTT, 10% glycerol). A yield of 15 mg MBP-Stat5b-His per liter of culture was obtained and aliquots (200 μl of 3.2 mg/ml) were quick-frozen and stored at −80° C., ready for use.
17000 compounds from the (FMP) ChemBioNet library were tested in a competitive-based fluorescence polarization (FP) assay to investigate the ability of compounds to bind to STAT5b-SH2 domain by displacing respective fluorophore-labeled peptides (5-carboxyfluorescein-GY (PO3H2) LSLPPW-NH2). The peptide purity was >95% and the screening were performed at room temperature. The final concentration of buffer components used was 10 mM HEPES (pH 7.5), 1 mM EDTA, 0.1% Igepal CA-630, 50 mM NaCl, and 5% DMSO. The final concentration of protein used was at 65 nM which correspond to the dissociation constants (Kd) for the individual protein-peptide interactions in assay buffer. The protein was first added to the black 384 well plate (Corning 3676) followed by test compounds and fluorophore-labeled peptide. The plates were centrifuged, and measured using Safire^2 well plate reader (Tecan, Crailsheim, Germany) after 15 minutes incubation at room temperature. […] For the analysis of the data GraphPad Prism 5 was used. Ligand efficiencies (LE) were calculated using equation derived as followed. LE=−ΔG°/HA with (ΔG°) is the standard free energy of binding in KJ and HA is the number of non-hydrogen atoms.

[1] = molecular target: full length human STAT3 protein (Homo sapiens, UniProt P40763); assay: FP specificity assay, STAT3; type: binding; conditions: concentrations up to 1 mM
Source text: Cell Lines and Culture Condition

[2] = system: phosphorylated STAT5 dimers; assay: ELISA-based STAT5 transcription factor assay of (STAT5)2-DNA complexes; type: biochemical, murine; conditions: cell-free, nuclear extract incubated 1 h at room temperature
Description: As an additional confirmation for the mode of action of the STAT5-binding fragments, we finally investigated their potential to interfere directly with the binding of phosphorylated STAT5 dimers to the target DNA sequences of the transcription factor. […] (FIGS. 6C, D) Nuclear extracts and cytoplasmic extracts were prepared from BaF3 FLT3-ITD cells using the Nuclear Extraction kit (Active Motif, Carlsbad, Calif., USA) according to the manufacturer's protocol. STAT5 activity was determined in nuclear protein extracts (20 μg) by the TransAM STATs family kits from Active Motif (Carlsbad, Calif.). All assays were performed following the manufactory instruction after the nuclear protein extraction.

[3] = molecular target: T2, protein tyrosine phosphatase SHP2 (Homo sapiens, UniProt Q06124); assay: SHP2 inhibition (specificity); type: biochemical; conditions: concentrations up to 1 mM
T2 sequence (Q06124 1-593): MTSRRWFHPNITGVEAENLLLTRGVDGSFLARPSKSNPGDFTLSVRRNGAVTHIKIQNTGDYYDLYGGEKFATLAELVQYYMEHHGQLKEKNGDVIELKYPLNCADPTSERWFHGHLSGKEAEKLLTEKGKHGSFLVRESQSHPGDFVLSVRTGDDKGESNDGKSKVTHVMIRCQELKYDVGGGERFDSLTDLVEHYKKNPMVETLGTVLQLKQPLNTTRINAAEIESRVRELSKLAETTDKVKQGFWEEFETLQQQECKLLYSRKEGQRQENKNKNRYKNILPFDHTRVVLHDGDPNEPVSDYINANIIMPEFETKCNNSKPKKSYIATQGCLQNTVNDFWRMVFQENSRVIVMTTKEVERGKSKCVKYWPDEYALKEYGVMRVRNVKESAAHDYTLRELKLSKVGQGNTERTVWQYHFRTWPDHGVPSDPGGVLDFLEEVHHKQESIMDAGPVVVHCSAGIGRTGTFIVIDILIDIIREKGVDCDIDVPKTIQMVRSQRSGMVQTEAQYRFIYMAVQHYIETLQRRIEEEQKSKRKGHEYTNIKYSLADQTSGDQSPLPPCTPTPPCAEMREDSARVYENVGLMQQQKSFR

STAT5 dimer = assay: Gel shift assay (EMSA) of STAT5 DNA binding; type: biochemical, murine; conditions: BaF3/FLT3-ITD nuclear extract
Description: Nuclear extracts and cytoplasmic extracts were prepared from BaF3 FLT3-ITD cells using the Nuclear Extraction kit (Active Motif, Carlsbad, Calif., USA) according to the manufacturer's protocol.
A gel shift assay was conducted using a double-stranded, biotin-labeled oligonucleotide probe containing the consensus binding site for STAT5 (sense strand, 5′-[…]-3′), using the Gelshift Chemiluminescent EMSA kit (Active Motif) according to the manufacturer's protocol. Protein-DNA complexes were resolved on a nondenaturing polyacrylamide gel, transferred to a positively charged nylon membrane, and cross-linked to a membrane using the UV-light cross-linker. After blocking, the membrane was incubated with blocking buffer containing streptavidin conjugated to HRP. After washing, protein-DNA complexes were detected using a chemi-luminescent substrate (Active Motif).

Sequence of full length human STAT3 protein (P40763 whole entry): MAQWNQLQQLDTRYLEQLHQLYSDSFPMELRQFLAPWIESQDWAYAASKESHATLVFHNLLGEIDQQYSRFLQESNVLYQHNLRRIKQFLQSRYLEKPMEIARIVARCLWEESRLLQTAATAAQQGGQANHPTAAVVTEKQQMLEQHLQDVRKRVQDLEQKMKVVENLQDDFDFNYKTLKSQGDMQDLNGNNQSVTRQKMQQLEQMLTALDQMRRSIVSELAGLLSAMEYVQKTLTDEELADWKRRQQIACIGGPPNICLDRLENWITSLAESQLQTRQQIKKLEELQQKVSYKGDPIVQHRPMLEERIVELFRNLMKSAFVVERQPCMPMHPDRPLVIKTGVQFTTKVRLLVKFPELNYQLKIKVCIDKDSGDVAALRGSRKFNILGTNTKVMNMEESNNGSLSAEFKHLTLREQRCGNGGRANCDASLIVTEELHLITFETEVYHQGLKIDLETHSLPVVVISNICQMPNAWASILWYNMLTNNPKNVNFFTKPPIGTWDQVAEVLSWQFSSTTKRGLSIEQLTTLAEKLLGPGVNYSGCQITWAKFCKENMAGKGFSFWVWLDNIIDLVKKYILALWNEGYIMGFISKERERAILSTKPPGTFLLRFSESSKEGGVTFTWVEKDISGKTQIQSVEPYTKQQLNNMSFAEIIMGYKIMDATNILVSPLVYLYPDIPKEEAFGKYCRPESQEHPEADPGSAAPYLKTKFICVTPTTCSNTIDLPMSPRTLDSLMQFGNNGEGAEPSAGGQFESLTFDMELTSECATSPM

## O=C(O)c1nonc1NCn1cnnn1 [Compound 3, 4-((1H-Tetrazol-1-yl)-methylamino)-furazan-3-carboxylic Acid]
STAT5b-SH2 domain
  Ki: 1400 ± 500 nM
  ligand efficiency: 2.23 kJ/mol per non-hydrogen atom
STAT5b-SH2 domain; Table 1, ligand efficiency
  LE: 2.23 kJ/mol* atom#
[1]
  binding to the SH2 domain of STAT3: no binding
[2]
  inhibition of protein-dimer-DNA complex formation: more potent inhibitor than compounds (15) and (6)
[3]
  inhibition of SHP2: No inhibition
STAT5 dimer
  STAT5 dimer DNA-binding activity: inhibits
